For the first assay, the target named is T1, Glucagon receptor (Homo sapiens, UniProt P47871). Nature of the assay: Percentage inhibition of human glucagon receptor function expressed in CHO cells at a concentration of 20 uM. It is filed as cell-based.
T1 sequence (P47871 whole entry): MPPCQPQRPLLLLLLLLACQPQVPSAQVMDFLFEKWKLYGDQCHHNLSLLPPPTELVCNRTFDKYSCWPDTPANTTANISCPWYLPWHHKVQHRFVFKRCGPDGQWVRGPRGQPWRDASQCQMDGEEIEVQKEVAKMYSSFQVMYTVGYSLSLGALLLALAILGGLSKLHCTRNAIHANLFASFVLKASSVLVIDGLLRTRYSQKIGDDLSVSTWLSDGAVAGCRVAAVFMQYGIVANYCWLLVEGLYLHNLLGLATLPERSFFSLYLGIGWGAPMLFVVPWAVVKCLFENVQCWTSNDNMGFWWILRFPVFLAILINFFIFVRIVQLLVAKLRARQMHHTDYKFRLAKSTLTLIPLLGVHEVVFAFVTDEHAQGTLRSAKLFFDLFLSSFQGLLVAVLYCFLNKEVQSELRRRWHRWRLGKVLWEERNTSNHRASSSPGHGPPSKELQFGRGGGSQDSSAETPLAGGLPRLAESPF
As for `CCCCCc1c(C(C)C)nc(C(C)C)c(CO)c1-c1cccc2ccccc12`, the inhibition (in general, the share of the control response that was lost under treatment) was 6%. Same read-out and setting: the same measure for `CCCCCc1c(C(C)C)nc(C(C)C)c(CO)c1-c1cccc(C(F)(F)F)c1`: 25%; for `CCC/C=C/c1c(C(C)C)nc(C(C)C)c(CO)c1-c1ccc(S(C)(=O)=O)cc1`: 14%. Compound `CCCCCc1c(C(C)C)nc(C(C)C)c(CO)c1-c1ccc(O)cc1` gave an inhibition of 24%. Still for that read-out and setting: to `CCCCCc1c(C(C)C)nc(C(C)C)c(CO)c1-c1ccc(C(F)(F)F)cc1` belongs 35%; to `CCCCCc1c(C(C)C)nc(C(C)C)c(CO)c1-c1cccc(C)c1`, 46%; to `CCCCCc1c(C(C)C)nc(C(C)C)c(CO)c1-c1cccc(Cl)c1`, 49%. For `CCCCCc1c(C(C)C)nc(C(C)C)c(CO)c1-c1ccccc1OC`, the inhibition was determined as 27%. Take `CCCCCc1c(C(C)C)nc(C(C)C)c(CO)c1-c1ccccc1NC(C)=O`: the inhibition was found to be 13%. Compound `CCCCCc1c(C(C)C)nc(C(C)C)c(CO)c1-c1ccc(-c2ccccc2)cc1` came in with an inhibition of 2%. In turn, `CCCCCc1c(C(C)C)nc(C(C)C)c(CO)c1-c1ccc2ccccc2c1` returned an inhibition of 16%. Same read-out and setting: the same measure for `CCCCCc1c(C(C)C)nc(C(C)C)c(CO)c1-c1ccc(CC)cc1`: 42%; for `CCC/C=C/c1c(C(C)C)nc(C(C)C)c(CO)c1-c1ccc(Cl)c(Cl)c1`: 39%; for `CCCCCc1c(C(C)C)nc(C(C)C)c(C)c1-c1ccccc1O`: 11%.

For `CCCCCc1c(C(C)C)nc(C(C)C)c(CO)c1-c1ccc(OC)cc1`, the inhibition was 37%.

Take `CCCCCc1c(C(C)C)nc(C(C)C)c(CO)c1-c1ccc(C(C)C)cc1`: the inhibition is 34%. For `CCCCCc1c(C(C)C)nc(C(C)C)c(CO)c1-c1ccccc1CO`, the inhibition stood at 44%. For the compound `CCCCCc1c(C(C)C)nc(C(C)C)c(CO)c1-c1ccccc1C`, the inhibition stood at 33%. As to `CCCCCc1c(C(C)C)nc(C(C)C)c(CO)c1-c1ccc(Cl)cc1Cl`, the inhibition is 8%. As to `CCCCCc1c(C(C)C)nc(C(C)C)c(CO)c1-c1ccc2c(c1)CCCC2`, the inhibition amounted to 37%.

In another assay the target is T1, Glucagon receptor. Nature of the assay: Tested for its ability to inhibit cAMP production in human glucagon receptor expressed CHO cells. Format: functional, cell-based. Background: cAMP levels reflect the balance of adenylyl cyclase and phosphodiesterase activity.
On to `CCCCCc1c(C(C)C)nc(C(C)C)c(CO)c1-c1ccc(F)cc1O`, for which the IC50 (commonly the midpoint of a concentration-inhibition curve) came to 0.12 µM. `CCCCCc1c(C(C)C)nc(C(C)C)c(CO)c1-c1ccc(F)cc1` yielded an IC50 of 0.4 µM.

For the next assay, the target named is T1, Glucagon receptor. Nature of the assay: biochemical.
Description: Tested for its inhibitory activity against human glucagon receptor (hGR) expressed in CHO cells
On to `CCCCCc1c(C(C)C)nc(C(C)C)c(CO)c1-c1ccc(F)cc1O`, for which inhibition was half-maximal at 0.19 µM (IC50). For the compound `CCCCCc1c(C(C)C)nc(C(C)C)c(CO)c1-c1ccc(F)cc1F`, inhibition was half-maximal at 11 µM (IC50).

In turn, `CCCCCc1c(C(C)C)nc(C(C)C)c(CO)c1-c1ccccc1N` came in with an IC50 of 2.3 µM.

For `CCCCCc1c(C(C)C)nc(C(C)C)c(CO)c1-c1ccc(F)c(CO)c1`, the IC50 turned out to be 19 µM. In the case of `CC(C)=Cc1c(C(C)C)nc(C(C)C)c(O)c1-c1ccc(F)cc1`, inhibition was half-maximal at 7 µM (IC50). Consider `CCCCCc1c(C(C)C)nc(C(C)C)c(CO)c1-c1cccc(OC)c1`, for which the IC50 is 48 µM.

For the origin of these results see ChEMBL document CHEMBL1135302, “Optimization of the 4-aryl group of 4-aryl-pyridine glucagon antagonists: development of an efficient, alternative synthesis” (Bioorg Med Chem Lett, 2002).
